Laboratory results taken from paper PMC3726336, “Product inhibition of cellulases studied with ^14C-labeled cellulose substrates” (Biotechnology for Biofuels, 2013).

Tests used:
CtCel7A = CtCel7A (Chaetomium thermophilum, UniProt A7WNU1); assay: Cellobiose inhibition of MUL hydrolysis by CtCel7A; type: biochemical; conditions: MUL substrate (5 μM)
From the text: (§1) The cellobiose inhibition of GH7 CBHs is most often studied on low-Mw model substrates. However, it has been shown that the inhibition of CBHs acting on low-Mw substrates appears to be much stronger than that on cellulose substrates. The Ki values for cellobiose inhibition of GH7 CBHs measured on low-Mw substrates are in the micromolar range [44, 51, 52], whereas those measured on cellulose are in the low- to high-millimolar range [28, 31, 32]. […] Unfortunately, the inhibition of this enzyme on cellulose has not been studied. We also studied the cellobiose inhibition of GH7 CBHs acting on MUL. The initial rates of MUL hydrolysis measured in the presence and absence of added cellobiose were first analyzed according to Equation 1, and the IC50 values were found using Equation 2. […] The inhibition of MUL hydrolysis is attributable to the binding of cellobiose to the product sites (+1/+2) of TrCel7A [52]. […]
(§2) For the inhibition of enzyme acting on the low-Mw substrate, the initial rates of the hydrolysis of MUL in the presence and absence of added cellobiose were followed. […] Reactions were stopped by the addition of NH3 (final concentration 0.1 M), and the released 4-methylumbelliferone was quantified by fluorescence using excitation and emission wavelengths of 360 nm and 450 nm, respectively.

TrCel12A = assay: Cellobiose effect on hydrolysis of 14C-amorphous cellulose by TrCel12A; type: biochemical, Trichoderma reesei; conditions: 35°C
From the text: EGs are a diverse group of enzymes present in all efficient cellulase systems. Their best recognized function is their synergism with CBHs. Depending on the conditions, the degree of synergistic effect may be more than 10-fold. Therefore, the inhibition of the EG component may result in a drastic decrease in the rate of the synergistic hydrolysis of cellulose. The main soluble product of the EG-catalyzed cellulose hydrolysis is cellobiose, but some glucose and higher-order oligosaccharides are also produced. Here, we studied the cellobiose inhibition of the EGs TrCel7B, TrCel5A and TrCel12A with ^14C-amorphous cellulose substrate. The enzyme concentrations and hydrolysis times were adjusted so that the linear region of the time course was studied. The time courses for the hydrolysis of ^14C-amorphous cellulose by TrCel7B in the presence and absence of added cellobiose are shown in Figure 9A. For the results with TrCel5A and TrCel12A, see Additional file 1: Figure S5. […] This figure is reasonably well in line with that measured for TrCel7B on amorphous cellulose using isothermal titration calorimetry. […]
EGs were assessed on ^14C-amorphous cellulose. ^14C-amorphous cellulose (0.5 g l^-1) was incubated (with shaking at 700 rpm) with EG in 50 mM sodium acetate buffer, pH 5.0, containing BSA (0.1 g l^-1) in the presence and absence of added cellobiose. […]

AtCel7A = AtCel7A (Acremonium thermophilum, UniProt A7WNT9); assay: Cellobiose inhibition of MUL hydrolysis by AtCel7A; type: biochemical; conditions: MUL substrate (5 μM)
AtCel7A, sequence (A7WNT9 entry or part of it): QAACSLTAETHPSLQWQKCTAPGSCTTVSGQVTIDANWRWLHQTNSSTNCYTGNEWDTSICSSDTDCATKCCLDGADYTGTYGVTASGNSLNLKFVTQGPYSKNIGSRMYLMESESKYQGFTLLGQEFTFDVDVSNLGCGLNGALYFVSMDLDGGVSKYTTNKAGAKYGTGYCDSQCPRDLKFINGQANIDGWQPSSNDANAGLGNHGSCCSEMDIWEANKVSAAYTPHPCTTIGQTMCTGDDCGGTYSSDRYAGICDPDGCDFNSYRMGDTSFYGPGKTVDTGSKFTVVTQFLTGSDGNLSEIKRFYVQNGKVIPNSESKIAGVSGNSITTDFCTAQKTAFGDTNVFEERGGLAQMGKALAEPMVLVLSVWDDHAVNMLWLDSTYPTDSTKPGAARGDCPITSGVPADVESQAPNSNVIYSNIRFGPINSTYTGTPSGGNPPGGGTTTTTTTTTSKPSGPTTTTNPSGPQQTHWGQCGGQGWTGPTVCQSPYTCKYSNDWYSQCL
From the text: as §1, §2

CtCel7A, sequence (A7WNU1 entry or part of it): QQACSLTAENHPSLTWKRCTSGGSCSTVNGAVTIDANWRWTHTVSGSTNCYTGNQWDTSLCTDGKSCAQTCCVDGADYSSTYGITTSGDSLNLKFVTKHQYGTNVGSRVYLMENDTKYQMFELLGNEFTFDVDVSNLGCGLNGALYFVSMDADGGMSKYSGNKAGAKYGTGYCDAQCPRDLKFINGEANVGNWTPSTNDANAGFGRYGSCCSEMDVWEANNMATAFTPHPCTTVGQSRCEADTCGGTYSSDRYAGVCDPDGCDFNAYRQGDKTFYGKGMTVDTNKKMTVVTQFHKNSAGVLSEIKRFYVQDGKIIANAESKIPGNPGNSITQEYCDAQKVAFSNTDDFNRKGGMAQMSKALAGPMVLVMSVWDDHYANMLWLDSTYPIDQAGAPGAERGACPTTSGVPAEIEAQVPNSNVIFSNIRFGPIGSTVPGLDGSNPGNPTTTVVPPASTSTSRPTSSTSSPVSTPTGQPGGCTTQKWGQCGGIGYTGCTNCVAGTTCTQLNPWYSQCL

In the case of `O=C[C@H](O)[C@@H](O)[C@H](O[C@@H]1O[C@H](CO)[C@@H](O)[C@H](O)[C@H]1O)[C@H](O)CO` [cellobiose, Cellobiose], the Ki (CtCel7A; 35°C) is reported as 110 µM, the Ki (CtCel7A; 50°C) is reported as 346 µM and the “IC50 (approximate, by visual inspection of Figure 9B)” value (TrCel12A; TrCel12A (50 nM), not accountable by Equation 5) is reported as “few hundred millimolar range”. The “Effect of cellobiose on activity” value (TrCel12A; TrCel12A, 75 mM cellobiose) was “apparent activation”, the Ki (AtCel7A; 35°C) was 95 µM and the Ki (AtCel7A; 50°C) was 233 µM.
